Measurements from patent US10441608B2, “Continuous methods for treating liquids and manufacturing certain constituents (e.g., nanoparticles) in liquids, apparatuses and nanoparticles and nanoparticle/liquid solution(s) resulting therefrom” (Clene Nanomedicine, Inc., priority 2009, dated 2019).
Converted amounts (≈) assume the structure as drawn. “And” between values parts separate entries of the source, which are not always exact repeats. Equal entries are not always repeated. Where two headings read alike, the source gives them in different places.

What was measured:
[1] = test system: Gram-Positive and Gram Negative bacteria; type: cell-based
[2] = test system: Staphylococcus aureus ATCC-29213; experiment: Broth microdilution MIC/MID 50 against Staphylococcus aureus; type: cell-based
Source text: The clinical and laboratory standards institute Broth Microdilution Methodology was employed, however, the growth medium used was an “RPMI” medium. Additionally, the methods for dilution and antimicrobial susceptibility tests for bacteria that grow aerobically were also followed with the noted exception of testing with alternative media (CLSI document […], CLSI, Wayne, Pa.). […] Under the column, “Isolate” identification beginning with either “GP” or “GN” occur. The “GP” corresponds to Gram-Positive bacteria and the “GN” corresponds to “Gram Negative” bacteria. Each of the organisms are specifically listed after the isolate identification.

C[C@H]1COc2c(N3CCN(C)CC3)c(F)cc3c(=O)c(C(=O)O)cn1c23 [Levofloxacin]
MID/MIC (amount of antibiotic) ([1]; GP33 EMRSA16 Staphylococcus aureus (MRSA), SSCmec type 2): >8 µg/mL
MID/MIC (amount of antibiotic) ([1]; GP34 EMRSA1 Staphylococcus aureus (MRSA), SSCmec type 3): 0.12 µg/mL
MID/MIC (amount of antibiotic) ([1]; GP35 EMRSA15 Staphylococcus aureus (MRSA), SSCmec type 4): 0.06 µg/mL
MID/MIC (amount of antibiotic) ([1]; GP36 HT2001254 Staphylococcus aureus (MRSA), PVL positive): 0.12 µg/mL
MID/MIC (amount of antibiotic) ([1]; GP37 Streptococcus agalactiae, antibiotic-susceptible clinical isolate): 1 µg/mL
MID/MIC (amount of antibiotic) ([1]; GP38 Streptococcus agalactiae, macrolide-resistant clinical isolate): 1 µg/mL
MID/MIC (amount of antibiotic) ([1]; GP39 Group C Streptococcus, antibiotic-susceptible clinical isolate): 0.5 µg/mL
MID/MIC (amount of antibiotic) ([1]; GP41 Group G Streptococcus, antibiotic-susceptible clinical isolate): 0.25 µg/mL
MID/MIC (amount of antibiotic) ([1]; GP42 Group G Streptococcus, macrolide-resistant clinical isolate): 0.25 µg/mL
MID/MIC (amount of antibiotic) ([1]; GP43 Streptococcus mitis, antibiotic-susceptible clinical isolate): 1 µg/mL
MID/MIC (amount of antibiotic) ([1]; GP46 Streptococcus constellatus, macrolide-resistant clinical isolate): 1 µg/mL
MID/MIC (amount of antibiotic) ([1]; GP47 Streptococcus oralis, antibiotic-susceptible clinical isolate): 1 µg/mL
MID/MIC (amount of antibiotic) ([1]; GP48 Streptococcus oralis, macrolide-resistant clinical isolate): 1 µg/mL
MID/MIC (amount of antibiotic) ([1]; GP49 Streptococcus bovis, antibiotic-susceptible clinical isolate): 1 µg/mL
MID/MIC (amount of antibiotic) ([1]; GP50 Streptococcus bovis, macrolide-resistant clinical isolate): 0.5 µg/mL and 1 µg/mL
MID/MIC (amount of antibiotic) ([1]; GP51 Streptococcus sanguis, antibiotic-susceptible clinical isolate): 1 µg/mL and 0.5 µg/mL
MID/MIC (amount of antibiotic) ([1]; GP52 Streptococcus sanguis, macrolide-resistant clinical isolate): 1 µg/mL
MID/MIC (amount of antibiotic) ([1]; GP53 Clostridium perfringens, antibiotic-susceptible clinical isolate, supplemented with 2% serum and 1 μg/mL Vit K): 0.015 µg/mL
MID/MIC (amount of antibiotic) ([1]; GP55 Group C Streptococcus, antibiotic-resistant clinical isolate): 0.5 µg/mL
MIC/MID 50 ([1]; Listeria monocytogenes - antibiotic-susceptible clinical isolate): 0.50 µg/mL (≈ 1.38 µM)
MIC/MID 50 ([1]; Moraxella catarrhalis β-lactamase positive clinical isolate (first of two lines so named)): 0.06 µg/mL (≈ 0.166 µM)
MIC/MID 50 ([1]; Moraxella catarrhalis β-lactamase positive clinical isolate (second of two lines so named)): 0.06 µg/mL (≈ 0.166 µM)
MIC/MID 50 ([1]; Morganella morganii - multi-drug resistant clinical isolate): 1.00 µg/mL (≈ 2.77 µM)
MID/MIC (amount of antibiotic) ([1]; P8119035 Citrobacter freundii, resistant clinical isolate): 8 µg/mL
MIC/MID 50 ([1]; Proteus mirabilis - antibiotic-susceptible clinical isolate): 0.06 µg/mL (≈ 0.166 µM)
MIC/MID 50 ([1]; Proteus mirabilis - multi-drug resistant clinical isolate): 2.00 µg/mL (≈ 5.53 µM)
MIC/MID 50 ([1]; Staphylococcus aureus - multi-drug-resistant clinical isolate): 4.00 µg/mL (≈ 11.1 µM)
MIC/MID 50 ([1]; Staphylococcus aureus - teicoplanin-intermediate clinical isolate): 4.00 µg/mL (≈ 11.1 µM)
MIC/MID 50 ([1]; Staphylococcus aureus ATCC 25923 - antibiotic-susceptible control strain): 0.12 µg/mL (≈ 0.332 µM)
MIC/MID 50 ([1]; Staphylococcus aureus ATCC 43300 - methicillin-resistant control strain): 0.25 µg/mL (≈ 0.692 µM)
MIC/MID 50 ([1]; Staphylococcus epidermidis antibiotic susceptible clinical isolate): 0.12 µg/mL (≈ 0.332 µM)
MIC/MID 50 ([1]; Staphylococcus epidermidis methicillin-resistant clinical isolate): 0.25 µg/mL (≈ 0.692 µM)
MIC/MID 50 ([1]; Staphylococcus haemolyticus - antibiotic susceptible clinical isolate): 0.50 µg/mL (≈ 1.38 µM)
MIC/MID 50 ([1]; Staphylococcus saprophyticus - antibiotic susceptible clinical isolate): 0.50 µg/mL (≈ 1.38 µM)
MIC/MID 50 ([1]; Stenotrophomonas maltophila - antibiotic-resistant clinical isolate): 1.00 µg/mL (≈ 2.77 µM)
MIC/MID 50 ([1]; Stenotrophomonas maltophilia - antibiotic-susceptible clinical isolate): 0.25 µg/mL (≈ 0.692 µM)
MIC/MID 50 ([1]; Streptococcus agalactiae - antibiotic-susceptible clinical isolate): 1.00 µg/mL (≈ 2.77 µM)
MIC/MID 50 ([1]; Streptococcus agalactiae - macrolide-resistant clinical isolate): 1.00 µg/mL (≈ 2.77 µM)
MIC/MID 50 ([1]; Streptococcus bovis - antibiotic-susceptible clinical isolate): 1.00 µg/mL (≈ 2.77 µM)
MIC/MID 50 ([1]; Streptococcus bovis - macrolide-resistant clinical isolate): 1.00 µg/mL (≈ 2.77 µM)
MIC/MID 50 ([1]; Streptococcus mitis - macrolide-resistant clinical isolate): 1.00 µg/mL (≈ 2.77 µM)
MIC/MID 50 ([1]; Streptococcus oralis - antibiotic-susceptible clinical isolate): 1.00 µg/mL (≈ 2.77 µM)
MIC/MID 50 ([1]; Streptococcus oralis - macrolide-resistant clinical isolate): 1.00 µg/mL (≈ 2.77 µM)
MIC/MID 50 ([1]; Streptococcus pneumoniae - ATCC 49619 antibiotic-susceptible control strain): 1.00 µg/mL (≈ 2.77 µM)
MIC/MID 50 ([1]; Streptococcus pneumoniae - multi-drug resistant clinical isolate): 1.00 µg/mL (≈ 2.77 µM)
MIC/MID 50 ([1]; Streptococcus pneumoniae - pencillin-susceptible clinical isolate): 1.00 µg/mL (≈ 2.77 µM)
MIC/MID 50 ([1]; Streptococcus pneumoniae - penicillin-intermediate clinical isolate): 0.50 µg/mL (≈ 1.38 µM)
MIC/MID 50 ([1]; Streptococcus pneumoniae - penicillin-resistant clinical isolate): 0.50 µg/mL (≈ 1.38 µM)
MIC/MID 50 ([1]; Streptococcus pyogenes - Macrolide (MLS) resistant clinical isolate): 0.50 µg/mL (≈ 1.38 µM)
MIC/MID 50 ([1]; Streptococcus sanguis - antibiotic-susceptible clinical isolate): 0.50 µg/mL (≈ 1.38 µM)
MIC/MID 50 ([1]; Streptococcus sanguis - macrolide-resistant clinical isolate): 1.00 µg/mL (≈ 2.77 µM)
MID/MIC (amount of antibiotic) ([2]; GP01 Staphylococcus aureus ATCC 29213, antibiotic-susceptible control strain): 0.12 µg/mL
MIC/MID 50 ([2]; Staphylococcus aureus ATCC 29213 - antibiotic-susceptible control strain): 0.12 µg/mL (≈ 0.332 µM)
